Assay results as given in patent US10653688B2, “6-(6-membered heteroaryl and aryl)isoquinolin-3-yl carboxamides and preparation and use thereof” (Samumed, LLC, priority 2017, dated 2020).
Read-outs that look alike come from different tables or passages of the source.

What was measured:
recombinant GSK3β kinase = recombinant GSK3β kinase (Homo sapiens (Human), UniProt P49841); experiment: GSK3β kinase assay (Ser/Thr 09 peptide Z-lyte, FRET); type: biochemical;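 note: FRET read-out as coumarin over fluorescein emission ratio, compounds incubated one hour at room temperature, IC50 from dose-response curve fit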
Sequence of recombinant GSK3β kinase (P49841 whole entry): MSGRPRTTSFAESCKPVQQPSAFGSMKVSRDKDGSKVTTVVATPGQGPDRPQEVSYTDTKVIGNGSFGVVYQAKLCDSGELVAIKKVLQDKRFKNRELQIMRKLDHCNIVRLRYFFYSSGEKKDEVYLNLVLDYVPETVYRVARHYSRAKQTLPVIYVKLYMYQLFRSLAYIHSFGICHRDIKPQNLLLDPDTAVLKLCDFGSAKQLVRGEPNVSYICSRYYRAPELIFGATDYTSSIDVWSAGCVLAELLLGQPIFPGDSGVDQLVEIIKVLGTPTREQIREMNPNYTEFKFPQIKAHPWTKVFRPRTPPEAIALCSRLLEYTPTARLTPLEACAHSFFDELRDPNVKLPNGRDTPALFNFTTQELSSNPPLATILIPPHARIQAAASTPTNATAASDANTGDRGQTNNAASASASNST
Procedure: Each compound is dissolved in DMSO as a 10 mM stock and used to prepare compound source plates. Serial dilution (1:3, 11-point dose-response curves from 10 M to 0.0003 M) and compound transfer was performed using the ECHO 550 (Labcyte, Sunnyvale, Calif.) into 1536-well black-walled round bottom plates (Corning).
This is a non-radioactive assay using fluorescence resonance energy transfer (FRET) between coumarin and fluorescein to detect kinase activity which is represented as ratio of coumarin emission/fluorescein emission.
The mixture is allowed to incubate with the representative compounds for one hour at room temperature. All reactions were performed in duplicate. Unphosphorylated (“0% Control”) and phosphorylated (“100% control”) forms of Ser/Thr 18 serve as control reactions.
After incubation, diluted Development Buffer is added to the reaction and allowed to further incubate for one hour at room temperature.
Dose-response curves are generated and inhibitory concentration (IC50) values are calculated using non-linear regression curve fit in the Dotmatics' Studies Software (Bishops Stortford, UK).

[1] = test system: IL-6 in human peripheral blood mononuclear cells (huPBMCs); experiment: IL-6 inhibition in LPS-stimulated human peripheral blood mononuclear cells (HTRF); type: cell-based; settings: Homo sapiens, PBMC; for EC50: LPS 50 ng/mL, 22 hours, IL-6 HTRF
In short: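 Fresh normal human PBMCs at 1×10e6 cells/mL in RPMI with 1% FBS received compound, then 50 ng/mL E. coli 0111:B4 LPS 2 h later, and were incubated a further 22 h at 37° C. IL-6 read by HTRF (665/620 nm ratio), normalized to DMSO; EC50 from 4-parameter fit.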

[2] = test system: Wnt activity (SW480 colon carcinoma cells stably expressing the Sp5-Luc reporter gene); experiment: Wnt activity screening assay (Sp5-Luc reporter gene assay); type: cell-based, human; settings: Homo sapiens; for EC50: 36 to 48 hours
In short: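 SW480 colon carcinoma cells stably carrying a lentiviral luciferase reporter driven by an Sp5 promoter with eight TCF/LEF sites, plated at 4,000 cells/well in DMEM with 1% FBS. Compound exposure for 36–48 h at 37 °C, then luminescence read. Signals normalized to DMSO; EC50 from four-parameter nonlinear fit.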

[3] = test system: SW480 colon carcinoma cells; experiment: Cell viability assay (CellTiter-Glo); type: cell-based, human; settings: Homo sapiens, 96 h, four days, CellTiter-Glo
[4] = test system: LL29 cells (primary human fibroblasts derived from IPF patients), α-smooth muscle actin; experiment: Inhibition of fibrotic process: TGF-β1-treated primary human fibroblasts, αSMA staining; type: cell-based; settings: Homo sapiens, Fibroblast; for EC50: 96 h, TGF-β1 20 ng/mL, 4 days, % cells positive for αSMA; for inhibition at 10 µM: read-out: percent inhibition at 10 μM (given for EC50 >10 μM), TGF-β1, αSMA, 10 μM;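 for all read-outs here: controls were TGF-β1-stimulated wells with DMSO vehicle as the positive reference and cells given DMSO alone as the negative reference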
Procedure: Representative compounds were screened using primary human fibroblasts (derived from IPF patients) treated with TGF-β1 to determine their ability to inhibit the fibrotic process.
Human Fibroblast Cell Culture:
Each compound was dissolved in DMSO as a 10 mM stock and used to prepare compound source plates. […] LL29 cells were plated at 1,500 cells/well in 70 μL/well F12 medium supplemented with 1% Fetal Bovine Serum. […] Wells treated with TGF-β1 and containing DMSO were used as positive control, and cells with only DMSO were negative control. Cells were incubated at 37° C. and 5% CO2 for 4 days. Following incubation for 4 days, SYTOX green nucleic acid stain (Life Technologies [Thermo Fisher Scientific]) was added to the wells at a final concentration of 1 μM and incubated at room temperature for 30 min. Cells were then fixed using 4% formaldehyde (Electron Microscopy Sciences), washed 3 times with PBS followed by blocking and permeabilization using 3% Bovine Serum Albumin (BSA; Sigma) and 0.3% Triton X-100 (Sigma) in PBS.

[5] = target: recombinant DYRK1A kinase (Homo sapiens (Human), UniProt Q13627); experiment: DYRK1A kinase assay (Ser/Thr 18 peptide Z-lyte, FRET)
[6] = GSK3β kinase, head says EC50, method says IC50, ATP 46 μM
[7] = DYRK1A kinase, head says EC50, method says IC50, ATP 30 μM

Structure (SMILES)	EC50 (recombinant GSK3β kinase; [6]) [nM]	EC50 [1] [nM]	EC50 [2] [nM]	EC50 [3] [nM]	EC50 [5, 7] [nM]	EC50 (recombinant GSK3β kinase) [nM]	EC50 [5] [nM]	EC50 [4] [nM]	inhibition at 10 µM [4] [%]	inhibition at 10 µM ([1]; read-out: percent inhibition at 10 μM (given for EC50 >10 μM), LPS, IL-6, 10 μM) [%]	inhibition at 10 µM ([2]; read-out: percent inhibition at 10 μM (given for EC50 >10 μM), 10 μM) [%]
O=C(Nc1cc2cc(-c3cncc(NCC4(F)CNC4)n3)ccc2cn1)c1ccc(F)cc1 [Compound 104, 4-fluoro-N-(6-(6-(((3-Fluoroazetidin-3-yl)methyl)amino)pyrazin-2-yl)isoquinolin-3-yl)benzamide]	4390	1170	63	119	1	–	–	284	–	–	–
O=C(Nc1cc2cc(-c3cncc(NC4CCNCC4)n3)ccc2cn1)C1CC(F)(F)C1 [Compound 106, 3,3-Difluoro-N-(6-(6-(piperidin-4-ylamino)pyrazin-2-yl)isoquinolin-3-yl) cyclobutane-1-carboxamide]	50	369	381	8420	1	–	–	27	–	–	–
O=C(Nc1cc2cc(-c3cncc(NC4CCNCC4)n3)ccc2cn1)C1CCCC1 [Compound 107, N-(6-(6-(Piperidin-4-ylamino)pyrazin-2-yl)isoquinolin-3-yl) cyclopentanecarboxamide]	31	119	266	5910	1	–	–	1270	–	–	–
O=C(Nc1cc2cc(-c3cncc(NC4CCNCC4)n3)ccc2cn1)C1CCC(F)(F)CC1 [Compound 108, 4,4-Difluoro-N-(6-(6-(piperidin-4-ylamino)pyrazin-2-yl)isoquinolin-3-yl) cyclohexane-1-carboxamide]	92	385	457	1560	2	–	–	3390	–	–	–
O=C(Nc1cc2cc(-c3cncc(N[C@H]4CCNC[C@@H]4F)n3)ccc2cn1)C1CC1 [Compound 111, N-(6-(6-(((3S,4S)-3-Fluoropiperidin-4-yl)amino)pyrazin-2-yl)isoquinolin-3-yl)cyclopropanecarboxamide]	–	106	9	18	–	4	1	1520	–	–	–
CN1CCC(Nc2cncc(-c3ccc4cnc(NC(=O)C5CCC5)cc4c3)n2)CC1 [Compound 113, N-(6-(6-((1-Methylpiperidin-4-yl)amino)pyrazin-2-yl)isoquinolin-3-yl) cyclobutanecarboxamide]	67	383	247	283	1	–	–	> 10000	27.3	–	–
CN1CCC(Nc2cncc(-c3ccc4cnc(NC(=O)c5ccc(F)cc5)cc4c3)n2)CC1 [Compound 115, 4-fluoro-N-(6-(6-((1-methylpiperidin-4-yl)amino)pyrazin-2-yl)isoquinolin-3-yl)benzamide]	–	3190	39	5120	–	8480	1	> 10000	12.2	–	–
CC(C)N1CCC(Nc2cncc(-c3ccc4cnc(NC(=O)C5CC(F)(F)C5)cc4c3)n2)CC1 [Compound 117, 3,3-Difluoro-N-(6-(6-((1-isopropylpiperidin-4-yl)amino)pyrazin-2-yl)isoquinolin-3-yl)cyclobutane-1-carboxamide]	128	1360	1470	1960	2	–	–	170	–	–	–
CC(C)N1CCC(Nc2cncc(-c3ccc4cnc(NC(=O)c5ccc(F)cc5)cc4c3)n2)CC1 [Compound 119, 4-Fluoro-N-(6-(6-((1-isopropylpiperidin-4-yl)amino)pyrazin-2-yl)isoquinolin-3-yl)benzamide]	> 10000	> 10000	> 10000	9020	2	–	–	> 10000	7.7	6.1	23.7

Further lines, with some results ahead:

EC50 (recombinant GSK3β kinase; [6]) [nM]	EC50 [1] [nM]	EC50 [2] [nM]	EC50 [3] [nM]	EC50 [5, 7] [nM]	EC50 (recombinant GSK3β kinase) [nM]	EC50 [5] [nM]	Structure (SMILES)	EC50 [4] [nM]	inhibition at 10 µM [4] [%]	inhibition at 10 µM ([1]; read-out: percent inhibition at 10 μM (given for EC50 >10 μM), LPS, IL-6, 10 μM) [%]	inhibition at 10 µM ([2]; read-out: percent inhibition at 10 μM (given for EC50 >10 μM), 10 μM) [%]
> 10000	401	153	226	19	–	–	CC(C)(C)Nc1cncc(-c2ccc3cnc(NC(=O)c4ccnc(N5CCOCC5)c4)cc3c2)n1 [Compound 102, N-(6-(6-(tert-Butylamino)pyrazin-2-yl)isoquinolin-3-yl)-2-morpholinoisonicotinamide]	94	–	–	–
3	146	119	253	1	–	–	O=C(Nc1cc2cc(-c3cncc(NCC4(F)CNC4)n3)ccc2cn1)C1CC1 [Compound 103, N-(6-(6-(((3-Fluoroazetidin-3-yl)methyl)amino)pyrazin-2-yl)isoquinolin-3-yl)cyclopropanecarboxamide]	547	–	–	–
–	207	261	312	–	56	1	O=C(Nc1cc2cc(-c3cncc(NC4CCNCC4)n3)ccc2cn1)C1CCC1 [Compound 105, N-(6-(6-(Piperidin-4-ylamino)pyrazin-2-yl)isoquinolin-3-yl) cyclobutanecarboxamide]	226	–	–	–
4320	1180	116	326	2	–	–	O=C(Nc1cc2cc(-c3cncc(NC4CCNCC4)n3)ccc2cn1)c1ccc(F)cc1 [Compound 110, 4-fluoro-N-(6-(6-(piperidin-4-ylamino)pyrazin-2-yl)isoquinolin-3-yl)benzamide]	345	–	–	–
1830	1060	9	7	8	–	–	O=C(Nc1cc2cc(-c3cncc(N[C@H]4CCNC[C@@H]4F)n3)ccc2cn1)c1ccc(F)cc1 [Compound 112, 4-Fluoro-N-(6-(6-(((3S,4S)-3-fluoropiperidin-4-yl)amino)pyrazin-2-yl)isoquinolin-3-yl)benzamide]	975	–	–	–
48	334	438	474	1	–	–	CN1CCC(Nc2cncc(-c3ccc4cnc(NC(=O)C5CCCC5)cc4c3)n2)CC1 [Compound 114, N-(6-(6-((1-Methylpiperidin-4-yl)amino)pyrazin-2-yl)isoquinolin-3-yl) cyclopentanecarboxamide]	175	–	–	–
58	358	198	485	1	–	–	CC(C)N1CCC(Nc2cncc(-c3ccc4cnc(NC(=O)C5CC5)cc4c3)n2)CC1 [Compound 116, N-(6-(6-((1-Isopropylpiperidin-4-yl)amino)pyrazin-2-yl)isoquinolin-3-yl) cyclopropanecarboxamide]	105	–	–	–
78	932	833	1190	1	–	–	CC(C)N1CCC(Nc2cncc(-c3ccc4cnc(NC(=O)C5CCCC5)cc4c3)n2)CC1 [Compound 118, N-(6-(6-((1-Isopropylpiperidin-4-yl)amino)pyrazin-2-yl)isoquinolin-3-yl) cyclopentanecarboxamide]	148	–	–	–
> 10000	8890	2770	3320	7	–	–	CN1CCN(c2cc(C(=O)Nc3cc4cc(-c5cncc(N(C)C)n5)ccc4cn3)ccn2)CC1 [Compound 120, N-(6-(6-(Dimethylamino)pyrazin-2-yl)isoquinolin-3-yl)-2-(4-methylpiperazin-1-yl)isonicotinamide]	620	–	–	–
